Here are results for nine compounds from patent US12692261B2, “Substituted heterocyclic compounds and therapeutic uses thereof” (Bayer Aktiengesellschaft, priority 2020, dated 2026).

Read-outs that look alike come from different tables or passages of the source.

Test [1] has as its target T1, wild-type Epidermal Growth Factor Receptor (EGFR) (Homo sapiens, UniProt P00533).
T1 construct: a fragment of human EGFR (amino acids R669 to A1210); made in house; host or cells: Sf9 insect cells
The test can be described thus: WT-EGFR Kinase Assay (TR-FRET, 2 mM ATP). Type of test: biochemical. The gist of the method:
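GST-fused human EGFR fragment (R669-A1210) from Sf9 cells, typically 7.6 pg/μL, pre-incubated with compound 15 min at 22° C in Hepes pH 7.0 buffer with MgCl2, DTT and vanadate; biotinylated peptide substrate. After EDTA stop, phosphopeptide detected by TR-FRET (anti-phosphotyrosine Tb-cryptate/streptavidin-XL665), 665/620 nm emission ratio.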
(TR-FRET usually uses a lanthanide donor and a delayed reading to cut background.)

Test [2] addresses T2, full-length human CSNK1A1 (Homo sapiens, UniProt P48729).
T2 construct: N-terminal Glutathion-S-Transferase (GST) and full-length human CSNK1A1; purchased Life Technologies PV4174; host or cells: baculovirus infected insect cells
In words: CSNK1A1 High ATP Assay (ADP-Glo, 1 mM ATP).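 Note: 30 min kinase reaction at 22 °C with 100 µM peptide substrate.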 Type of test: biochemical. Conditions: Table 3, read-out: CSNK1A1 high ATP assay IC50 [mol/l] (median). The gist of the method: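 Kinase activity taken as ADP generated, quantified by ADP-Glo luminescence after 1 h ATP depletion and 1 h detection at 22 °C. Enzyme is GST–full-length human CSNK1A1 (insect cell-expressed), pre-bound to compound for 15 min, with phosphopeptide substrate and 1 mM ATP.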
(In general: ADP-Glo turns the ADP formed in a reaction into a luminescent signal.)

The mark [3] stands for this setting: EGFR Wildtyp 2 mM ATP IC50 [mol/l] (median), Table 4.
[4] abbreviates: read-out: EGFR Wildtyp 2 mM ATP IC50 [mol/l] (median), Table 4.

T2 sequence (P48729 whole entry): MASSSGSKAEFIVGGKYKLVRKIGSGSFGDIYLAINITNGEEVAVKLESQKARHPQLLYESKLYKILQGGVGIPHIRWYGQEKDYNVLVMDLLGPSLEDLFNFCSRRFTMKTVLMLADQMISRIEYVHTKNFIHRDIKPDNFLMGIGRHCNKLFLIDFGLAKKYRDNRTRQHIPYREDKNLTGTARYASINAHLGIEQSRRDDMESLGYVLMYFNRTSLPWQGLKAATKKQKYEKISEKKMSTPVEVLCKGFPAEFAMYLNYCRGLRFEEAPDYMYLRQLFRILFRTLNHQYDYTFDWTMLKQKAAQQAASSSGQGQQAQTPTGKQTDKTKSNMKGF
T1 sequence (P00533 669-1210): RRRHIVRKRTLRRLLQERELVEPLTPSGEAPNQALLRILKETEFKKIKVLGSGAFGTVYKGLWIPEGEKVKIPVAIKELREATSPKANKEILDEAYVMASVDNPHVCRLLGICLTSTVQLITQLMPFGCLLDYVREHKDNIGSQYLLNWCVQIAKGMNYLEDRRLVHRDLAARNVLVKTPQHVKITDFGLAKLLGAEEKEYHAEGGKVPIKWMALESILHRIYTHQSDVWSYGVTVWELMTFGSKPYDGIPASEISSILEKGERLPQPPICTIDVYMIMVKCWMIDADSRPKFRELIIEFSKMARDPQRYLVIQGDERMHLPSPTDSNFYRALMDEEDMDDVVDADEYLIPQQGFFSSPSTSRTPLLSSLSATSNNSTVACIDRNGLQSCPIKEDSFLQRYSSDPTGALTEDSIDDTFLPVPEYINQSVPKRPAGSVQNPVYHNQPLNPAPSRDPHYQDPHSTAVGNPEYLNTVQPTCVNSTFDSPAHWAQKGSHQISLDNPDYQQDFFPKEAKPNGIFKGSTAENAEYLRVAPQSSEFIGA

Consider `O=C(Nc1cc(-c2[nH]c3ncc(F)nc3c2-c2ccccn2)ccn1)C(CC(F)F)c1ccc(F)cc1` (racemic) [Example 62, (2RS)-4,4-difluoro-2-(4-fluorophenyl)-N-{4-[2-fluoro-7-(pyridin-2-yl)-5H-pyrrolo[2,3-b]pyrazin-6-yl]pyridin-2-yl}butanamide], for which the IC50 in test [1] (setting [3]) was over 20000 nM; in test [2], 3.92 nM.
Turning to `O=C(Nc1cc(-c2[nH]c3c(OCC(F)F)ncnc3c2-c2ccccn2)ccn1)C(CC(F)F)c1ccc(F)cc1` (single isomer, unassigned) [Example 79, (2R or S)—N-{4-[4-(2,2-difluoroethoxy)-7-(pyridin-2-yl)-5H-pyrrolo[3,2-d]pyrimidin-6-yl]pyridin-2-yl}-4,4-difluoro-2-(4-fluorophenyl)butanamide], the IC50 in test [1] (setting [3]) is over 20000 nM; in test [2], 3.1 nM.
The like results for `O=C(Nc1cc(-c2[nH]c3c(O[C@H]4CCOC4)cc(F)nc3c2-c2ccccn2)ccn1)C(CC(F)F)c1ccc(F)cc1` (mixture of isomers) [Example 53, (2RS)-4,4-difluoro-N-{4-[5-fluoro-7-{[(3S)-oxolan-3-yl]oxy}-3-(pyridin-2-yl)-1H-pyrrolo[3,2-b]pyridin-2-yl]pyridin-2-yl}-2-(4-fluorophenyl)butanamide] were, in that order, over 20000 nM and 6 nM.
In the same order, the values of `O=C(Nc1cc(-c2[nH]c3c(OC[C@@H]4COCCO4)cc(F)nc3c2-c2ccccn2)ccn1)C(CC(F)F)c1ccc(F)cc1` (single isomer, unassigned) [Example 58, (2R or S)—N-{4-[7-{[(2S)-1,4-dioxan-2-yl]methoxy}-5-fluoro-3-(pyridin-2-yl)-1H-pyrrolo[3,2-b]pyridin-2-yl]pyridin-2-yl}-4,4-difluoro-2-(4-fluorophenyl)butanamide] are over 20000 nM and 3.56 nM.
For the compound `O=C(Nc1cc(-c2[nH]c3c(OC[C@@H]4COCCO4)cc(F)nc3c2-c2ccccn2)ccn1)C(CC(F)F)c1ccc(F)cc1` (single isomer, unassigned) [Example 59, (2R or S)—N-{4-[7-{[(2S)-1,4-dioxan-2-yl]methoxy}-5-fluoro-3-(pyridin-2-yl)-1H-pyrrolo[3,2-b]pyridin-2-yl]pyridin-2-yl}-4,4-difluoro-2-(4-fluorophenyl)butanamide], the IC50 in test [1] (setting [4]) is over 20000 nM; in test [2] it was 12.7 nM.
For the compound `O=C(Nc1cc(-c2[nH]c3c(O[C@H]4CCOC4)ncnc3c2-c2ccccn2)ccn1)C(CC(F)F)c1ccc(F)cc1` (single isomer, unassigned) [Example 73, (2R or S)-4,4-difluoro-2-(4-fluorophenyl)-N-{4-[4-{[(3S)-oxolan-3-yl]oxy}-7-(pyridin-2-yl)-5H-pyrrolo[3,2-d]pyrimidin-6-yl]pyridin-2-yl}butanamide], the IC50 is over 20000 nM in test [1] (setting [3]) and 4.16 nM in test [2].
As to `O=C(Nc1cc(-c2[nH]c3c(OC[C@H]4COCCO4)cc(F)nc3c2-c2ccccn2)ccn1)C(CC(F)F)c1ccc(F)cc1` (single isomer, unassigned) [Example 52, (2R or S)—N-{4-[7-{[(2R)-1,4-dioxan-2-yl]methoxy}-5-fluoro-3-(pyridin-2-yl)-1H-pyrrolo[3,2-b]pyridin-2-yl]pyridin-2-yl}-4,4-difluoro-2-(4-fluorophenyl)butanamide], the values for the IC50 in test [1] (setting [4]) and in test [2] were over 20000 nM and 17.2 nM, respectively.
In the same order, the values of `O=C(Nc1cc(-c2[nH]c3cc(Cl)cnc3c2-c2ccccn2)ccn1)C(CC(F)F)c1ccc(F)cc1` (single isomer, unassigned) [Example 89, (−)—N-{4-[6-chloro-3-(pyridin-2-yl)-1H-pyrrolo[3,2-b]pyridin-2-yl]pyridin-2-yl}-4,4-difluoro-2-(4-fluorophenyl)butanamide] are over 20000 nM and 89 nM.
For `Cc1ccnc2c(-c3ccccn3)c(-c3ccnc(NC(=O)C(CC(F)F)c4ccc(F)cc4)c3)[nH]c12` (stereo not drawn) [Example 84, 4,4-difluoro-2-(4-fluorophenyl)-N-{4-[7-methyl-3-(pyridin-2-yl)-1H-pyrrolo[3,2-b]pyridin-2-yl]pyridin-2-yl}butanamide], the IC50 in test [1] (setting [3]) is over 20000 nM; in test [2] it was 4.77 nM.
